Measurements from patent publication US20210059984A1, “METHOD AND COMPOSITION FOR REVERSING COGNITIVE IMPAIRMENTS AND LOSS USING SGLT2 INHIBITORS” (TAISHO PHARMACEUTICAL CO., LTD., priority 2019, published 2021).

What was measured:
SGLT2 = target: T1, SGLT2 (Homo sapiens, UniProt P31639); conditions: among the three FDA approved drugs; cited from earlier work
T1 sequence (P31639 1-672): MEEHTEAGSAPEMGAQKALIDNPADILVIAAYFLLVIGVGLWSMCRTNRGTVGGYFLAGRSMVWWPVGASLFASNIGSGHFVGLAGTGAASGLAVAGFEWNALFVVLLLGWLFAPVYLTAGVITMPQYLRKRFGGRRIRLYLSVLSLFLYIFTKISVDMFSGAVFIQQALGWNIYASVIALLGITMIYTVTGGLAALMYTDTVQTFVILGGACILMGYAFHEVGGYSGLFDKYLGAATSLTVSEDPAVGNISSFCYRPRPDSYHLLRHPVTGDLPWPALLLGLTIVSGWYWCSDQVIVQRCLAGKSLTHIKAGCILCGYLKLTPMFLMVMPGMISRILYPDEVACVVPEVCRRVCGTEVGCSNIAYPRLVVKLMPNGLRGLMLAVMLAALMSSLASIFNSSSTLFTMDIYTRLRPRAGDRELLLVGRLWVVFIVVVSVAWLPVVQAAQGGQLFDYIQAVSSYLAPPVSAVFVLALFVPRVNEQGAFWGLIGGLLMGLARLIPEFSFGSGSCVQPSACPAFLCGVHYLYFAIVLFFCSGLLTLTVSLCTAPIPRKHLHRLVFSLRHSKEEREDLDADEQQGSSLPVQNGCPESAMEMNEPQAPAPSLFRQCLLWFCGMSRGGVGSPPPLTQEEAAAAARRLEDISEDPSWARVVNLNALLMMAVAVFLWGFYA

diabetic patients = conditions: mean age 77 years, 12-month administration; cited from earlier work
diabetic mice = conditions: cited from earlier work
T2DN rats [1] = assay: Plasma glucose and HbA1c levels in aged diabetic T2DN rats during drug treatment; format: in vivo, rat; conditions: 20 mg/kg/day via drinking water, from 14 months of age for 4 months, FIG. 3
Protocol: (§1) Unless otherwise indicated, all experiments using SGLT2 inhibitors were performed on 18-month old male Sprague Dawley (SD) and 14-month old […] rats, a genetic rat model of type II diabetes. Outbred SD rats purchased from Charles River were used as a nondiabetic control rat since identical genotypes are not necessary for this study. […] rats were prepared according to Diabetes, vol. 53, March 2004, pages 735-742. […] Treatment with an SGLT2 inhibitor began at 14-months of age and lasted for 4 months to determine whether control of hyperglycemia can slow the progression of cognitive dysfunction. Rats received either a vehicle or the SGLT2 inhibitor, luseogliflozin, at a dose of 20 mg/kg/day via drinking water. The SD rats were used as control. The levels of plasma glucose and HbA1c were measured by drawing a drop of blood from the tail vein during drug treatment and using traditional analytical methods to determine the concentration of plasma glucose and HbA1c.

T2DN rats [2] = assay: Autoregulation of cerebral blood flow (laser Doppler flowmetry); format: in vivo, rat; conditions: aged T2DN rats, 20 mg/kg/day via drinking water for 4 months; FIG. 5
Protocol: Measurements of arterial pressure and cortical blood flow (CBF) were performed by inserting cannulas in the femoral artery and vein for drug delivery and monitoring the mean arterial pressure (MAP). A closed cranial window was prepared on both sides of the brain by thinning the bone using a dental drill until the vessels on the surface of the brain could be visualized. Cortical blood flow (CBF) was measured using a laser Doppler flowmeter (LDF). Unless otherwise indicated, all experiments using SGLT2 inhibitors were performed on 18-month old male Sprague Dawley (SD) and 14-month old […] rats, a genetic rat model of type II diabetes. […] Next the effect of SGLT2 inhibitor was examined in the treatment of impaired myogenic response and autoregulation of cerebral blood flow was determined. […] The myogenic reactivity in response to an elevation in perfusion pressure was calculated by the formula: Dpressure/ID60 mmHg×100(%). […] After a 10-min equilibration period, baseline CBF was measured at 100 mmHg. […] CBF was measured at each step when the MAP reached a steady state. The infusion of phenylephrine was then stopped which allowed MAP to return to 100 mmHg, and CBF was re-recorded. […] Percentage change of CBF was calculated by the formula: [(CBFMAP-CBFbaseline)/CBFbaseline]×100(%).

T2DN rats [3] = assay: Blood-brain barrier leakage by Evans blue dye; format: in vivo, rat; conditions: aged T2DN rats, long-term treatment, MAP 180 mmHg for 1 hour; FIG. 6
Protocol: Unless otherwise indicated, all experiments using SGLT2 inhibitors were performed on 18-month old male Sprague Dawley (SD) and 14-month old […] rats, a genetic rat model of type II diabetes. Outbred SD rats purchased from Charles River were used as a nondiabetic control rat since identical genotypes are not necessary for this study. […] rats were prepared according to Diabetes, vol. 53, March 2004, pages 735-742. […] Treatment with an SGLT2 inhibitor began at 14-months of age and lasted for 4 months to determine whether control of hyperglycemia can slow the progression of cognitive dysfunction. Rats received either a vehicle or the SGLT2 inhibitor, luseogliflozin, at a dose of 20 mg/kg/day via drinking water. The SD rats were used as control. To determine the impact of higher cerebral blood flow with extended middle cerebral artery diameters on the brain, the brains of SGLT2-treated and untreated rats were assessed for blood brain leakage (BBB). Evans blue (EB) dye was used to compare the degree of BBB leakage. EB was injected via the femoral vein, and MAP was maintained at 180 mmHg for 1 hour by adjusting the infusion rate of phenylephrine. […] The brain was then homogenized and BBB leakage was quantitated using a fluorescent microplate reader at excitation and emission wavelengths of 620 nm and 680 nm.

T2DN rats [4] = assay: Functional hyperemia (neurovascular coupling) in response to whisker stimulation; format: in vivo, rat; conditions: old diabetic T2DN rats, whisker stimulation 10 Hz for 60 seconds; FIG. 7
Protocol: as §1, with “[…] In these studies, neurovascular coupling (NVC) responses were investigated prior to cerebral autoregulation study. […] Cortical blood flow (CBF) was measured using a laser Doppler flowmeter ([…] probe was placed above somatosensory cortex for the recording” for “The levels”, “LDF signal change (CBFchange). Percentage changes in CBF at various perfusion pressures vs. CBF at perfusion pressure of 100 mmHg” for “plasma glucose and HbA1c”, “determined in response” for “measured by drawing a drop of blood from the tail vein during drug treatment and using traditional analytical methods”, “whisker stimulation.” for “determine the concentration of plasma glucose and HbA1c.”

[5] = system: middle cerebral artery of T2DN rats; assay: Pressure-induced myogenic response of isolated middle cerebral artery; format: ex vivo, rat; conditions: aged T2DN rats, 20 mg/kg/day via drinking water for 4 months; FIG. 4
Text: To measure the myogenic response of cerebral arteries, a section of the brain containing middle cerebral artery (MCA) was dissected and immediately placed in Tyrode's solution. A branch of the MCA was microdissected and cannulated with glass pipettes in a pressure myograph chamber filled with a physiologic salt solution (PSS). The vessels were equilibrated at a transmural pressure of 40 mmHg to develop spontaneous tone. After preconditioning, the inner diameter (ID) of MCA in response to intraluminal pressures ranging from 40 to 180 mmHg in steps of 20 mmHg was measured to access the myogenic response. Then, a passive pressure-diameter relationship was determined by replacing the bath solution with calcium-free PSS. The myogenic reactivity in response to an elevation in perfusion pressure was calculated by the formula: IDpressure/D40 mmHg×100(%). […] Next the effect of SGLT2 inhibitor was examined in the treatment of impaired myogenic response and autoregulation of cerebral blood flow was determined. […] The myogenic reactivity in response to an elevation in perfusion pressure was calculated by the formula: Dpressure/ID60 mmHg×100(%). […] After a 10-min equilibration period, baseline CBF was measured at 100 mmHg. […] CBF was measured at each step when the MAP reached a steady state. The infusion of phenylephrine was then stopped which allowed MAP to return to 100 mmHg, and CBF was re-recorded. […]

T2DN rats [6] = assay: Eight-arm radial water maze test of spatial learning and memory; format: in vivo, rat; conditions: DM (T2DN) rats, tests 2, 24, 48 and 72 hours post training; FIG. 8
Protocol: Unless otherwise indicated, all experiments using SGLT2 inhibitors were performed on 18-month old male Sprague Dawley (SD) and 14-month old […] rats, a genetic rat model of type II diabetes. Outbred SD rats purchased from Charles River were used as a nondiabetic control rat since identical genotypes are not necessary for this study. […] rats were prepared according to Diabetes, vol. 53, March 2004, pages 735-742. […] Treatment with an SGLT2 inhibitor began at 14-months of age and lasted for 4 months to determine whether control of hyperglycemia can slow the progression of cognitive dysfunction. Rats received either a vehicle or the SGLT2 inhibitor, luseogliflozin, at a dose of 20 mg/kg/day via drinking water. The SD rats were used as control. […] The rats are trained to identify a platform marked with a visual cue in one of the 8 arms of the pool to escape. Four memory trials are performed at 2, 24, 48 and 72 hrs after the training, which consist of 4 consecutive swims. The time to reach the platform (latency), the number of errors, distance traveled and swim speed were recorded (Nat Protoc 1: 1671-1679, 2006). Control, DM and DM luseogliflozin treated rats were trained on the first day to recognize the platform located in one of the eight arms to escape, and repeated tests were performed 2, 24, 48, and 72 hours post training. The time taken by the rats to reach the platform was recorded. […]

| Structure (SMILES) | selectivity for SGLT2 compared to SGLT1 (SGLT2) | cognitive functions (cognitive performance) (diabetic patients) | cognitive function (diabetic mice) | levels of HbA1c (T2DN rats [1]) | levels of plasma glucose (T2DN rats [1]) | cerebral blood flow on elevation of MAP (autoregulation) (T2DN rats [2]) | blood brain barrier damage (Evans blue leakage) (T2DN rats [3]) | functional hyperemia in response to whisker stimulation (T2DN rats [4]) | diameters of middle cerebral artery upon exposure to higher perfusion pressures (myogenic response) [5] | escape time (time to reach the platform), cognitive performance (T2DN rats [6]) |
| --- | --- | --- | --- | --- | --- | --- | --- | --- | --- | --- |
| Cc1ccc([C@@H]2O[C@H](CO)[C@@H](O)[C@H](O)[C@H]2O)cc1Cc1ccc(-c2ccc(F)cc2)s1 [canagliflozin] | least selective | no worsening of their cognitive functions | – | – | – | – | – | – | – | – |
| OC[C@H]1O[C@@H](c2ccc(Cl)c(Cc3ccc(O[C@H]4CCOC4)cc3)c2)[C@H](O)[C@@H](O)[C@@H]1O [empagliflozin] | greatest selectivity | no worsening of their cognitive functions | cognitive function improving effect | – | – | – | – | – | – | – |
| CCOc1ccc(Cc2cc([C@@H]3S[C@H](CO)[C@@H](O)[C@H](O)[C@H]3O)c(OC)cc2C)cc1 [luseogliflozin] | – | – | – | reduced both the levels of plasma glucose and HbA1c to near normal | reduced both the levels of plasma glucose and HbA1c to near normal | restored to normal levels | completely reversed the blood brain barrier damage | restored | completely reversed the increase in the diameters of middle cerebral artery | reduced escape time similar to normal rats |
